Test system: 324938-238-R-J1-PDC complex spheroid growth, % test/control
Assay: Anticancer human tumor 324938-238-R-J1-PDC patient-derived bladder carcinoma cell line growth inhibition [AhR]
Conditions: for IC50: curve of first compound; for viability, T/C: stronger effect = lower value
How it was run: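 Complex tumor spheroids co-cultured with HUVEC and human MSC stroma; AhR antagonists tested in combination with standard-of-care and investigational agents. Top concentration at or near clinical Cmax (else 10 microM), half-log dilutions; growth expressed as percent test/control.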

[1] = second compound 0.1 µM, first compound 0.00949 µM
[2] = second compound 0.1 µM, first compound 0.03 µM
[3] = second compound 0.1 µM, first compound 0.0949 µM
[4] = second compound 0.1 µM, first compound 0.3 µM
[5] = second compound 0.1 µM, first compound 0.949 µM
[6] = second compound 0.1 µM, first compound 3 µM
[7] = second compound 0.316 µM, first compound 0.00949 µM
[8] = second compound 0.316 µM, first compound 0.03 µM
[9] = second compound 0.316 µM, first compound 0.0949 µM
[10] = second compound 0.316 µM, first compound 0.3 µM
[11] = second compound 0.316 µM, first compound 0.949 µM
[12] = second compound 0.316 µM, first compound 3 µM
[13] = second compound 1 µM, first compound 0.00949 µM
[14] = second compound 1 µM, first compound 0.03 µM
[15] = second compound 1 µM, first compound 0.0949 µM
[16] = second compound 1 µM, first compound 0.3 µM
[17] = second compound 1 µM, first compound 0.949 µM
[18] = second compound 1 µM, first compound 3 µM
[19] = second compound 3.16 µM, first compound 0.00949 µM
[20] = second compound 3.16 µM, first compound 0.03 µM
[21] = second compound 3.16 µM, first compound 0.0949 µM
[22] = second compound 3.16 µM, first compound 0.3 µM
[23] = second compound 3.16 µM, first compound 0.949 µM
[24] = second compound 3.16 µM, first compound 3 µM
[25] = second compound 10 µM, first compound 0.00949 µM
[26] = second compound 10 µM, first compound 0.03 µM
[27] = second compound 10 µM, first compound 0.0949 µM
[28] = second compound 10 µM, first compound 0.3 µM
[29] = second compound 10 µM, first compound 0.949 µM
[30] = second compound 10 µM, first compound 3 µM
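Also: spheroids exposed to agents for seven days before viability read.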

SMILES | IC50 (second compound 0.1 µM) | IC50 (second compound 0.316 µM) | IC50 (second compound 1 µM) | IC50 (second compound 3.16 µM) | IC50 (second compound 10 µM) | viability, T/C [1] | viability, T/C [2] | viability, T/C [3] | viability, T/C [4] | viability, T/C [7] | viability, T/C [8] | viability, T/C [9] | viability, T/C [10] | viability, T/C [13] | viability, T/C [14] | viability, T/C [15] | viability, T/C [16] | viability, T/C [19] | viability, T/C [20] | viability, T/C [21] | further results
CCN(c1cc(-c2ccc(CN3CCOCC3)cc2)cc(C(=O)NCc2c(C)cc(C)[nH]c2=O)c1C)C1CCOCC1 + CC(CO)NC(=O)c1cc(-c2ccc(Cl)cc2)nn(-c2cnn(C)c2)c1=O | > 3000 nM | > 3000 nM | > 3000 nM | > 3000 nM | > 3000 nM | 105% | 114% | 107% | 101% | 102% | 96.3% | 92.8% | 94.8% | 88% | 92.4% | 89.2% | 98.3% | 79.3% | 80.6% | 76.7% | viability, T/C [5]: 95%; viability, T/C [6]: 101%; viability, T/C [11]: 96.6%; viability, T/C [12]: 93.2%; viability, T/C [17]: 90.2%; viability, T/C [18]: 88.9%; viability, T/C [22]: 72.5%; viability, T/C [23]: 77.3%; viability, T/C [24]: 77.6%; viability, T/C [25]: 70.4%; viability, T/C [26]: 69%; viability, T/C [27]: 67.5%; viability, T/C [28]: 77.3%; viability, T/C [29]: 66.3%; viability, T/C [30]: 74.1%
Nc1ncn(C2CC(O)C(CO)S2)c(=O)n1 (stereo not given) + CC(CO)NC(=O)c1cc(-c2ccc(Cl)cc2)nn(-c2cnn(C)c2)c1=O | 284 nM | 254 nM | > 300 nM | 139 nM | > 300 nM | 90.7% | 84% | 69.4% | 49% | 78.1% | 78.7% | 64.2% | 46.5% | 90.5% | 69.4% | 59.1% | 54.2% | 70.3% | 58% | 57% | viability, T/C (second compound 0.1 µM, first compound 0.000949 µM): 99.4%; viability, T/C (second compound 0.1 µM, first compound 0.003 µM): 93.2%; viability, T/C (second compound 0.316 µM, first compound 0.000949 µM): 93.9%; viability, T/C (second compound 0.316 µM, first compound 0.003 µM): 88.4%; viability, T/C (second compound 1 µM, first compound 0.000949 µM): 91.9%; viability, T/C (second compound 1 µM, first compound 0.003 µM): 89.6%; viability, T/C (second compound 3.16 µM, first compound 0.000949 µM): 75.1%; viability, T/C (second compound 3.16 µM, first compound 0.003 µM): 75.4%; viability, T/C [22]: 41.6%; viability, T/C (second compound 10 µM, first compound 0.000949 µM): 64.6%; viability, T/C (second compound 10 µM, first compound 0.003 µM): 72.6%; viability, T/C [25]: 57.1%; viability, T/C [26]: 65.2%; viability, T/C [27]: 52.5%; viability, T/C [28]: 53.3%
O=C(C=Cn1cnc(-c2cc(C(F)(F)F)cc(C(F)(F)F)c2)n1)NNc1cnccn1 + CC(CO)NC(=O)c1cc(-c2ccc(Cl)cc2)nn(-c2cnn(C)c2)c1=O | 123 nM | 138 nM | 135 nM | 96.2 nM | 125 nM | 83.2% | 77.4% | 51.8% | 34.9% | 75.7% | 87.5% | 53.8% | 33.5% | 82.3% | 76.4% | 58% | 31.1% | 69.1% | 65% | 50.7% | viability, T/C [5]: 17.8%; viability, T/C [6]: 11.8%; viability, T/C [11]: 19.8%; viability, T/C [12]: 12.6%; viability, T/C [17]: 23.1%; viability, T/C [18]: 14.2%; viability, T/C [22]: 27.2%; viability, T/C [23]: 19%; viability, T/C [24]: 12.8%; viability, T/C [25]: 62%; viability, T/C [26]: 61.8%; viability, T/C [27]: 57.7%; viability, T/C [28]: 31.3%; viability, T/C [29]: 24.8%; viability, T/C [30]: 11.4%
